Laboratory results as given in paper PMC7948977 (The Journal of Biological Chemistry, 2020).

Tests used:
[1] = target: T1, ASFV dUTPase (African swine fever virus, UniProt Q65199); assay: biochemical; assay type: binding
[2] = target: T1, ASFV dUTPase; assay type: biochemical
[3] = system: swine dUTPase; assay type: biochemical

T1 sequence (Q65199 whole entry, looked up): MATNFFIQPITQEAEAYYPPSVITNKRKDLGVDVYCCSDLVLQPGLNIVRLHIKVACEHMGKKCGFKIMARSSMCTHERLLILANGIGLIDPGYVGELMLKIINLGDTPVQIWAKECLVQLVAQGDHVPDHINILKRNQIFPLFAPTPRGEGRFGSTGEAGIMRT

Compound	Kd [1]	mode of inhibition [1]	inhibition of enzyme activity of ASFV dUTPase [2]	selectivity of inhibitory activity for ASFV dUTPase over swine dUTPase [3]
O=c1ccn(CCCCNC(c2ccccc2)(c2ccccc2)c2ccccc2)c(=O)[nH]1 [compound 1]	15.6 µM	competitive inhibitor	dose-dependent manner	selective for ASFV dUTPase over swine dUTPase
O=c1ccn(CCCCOC(c2ccccc2)(c2ccccc2)c2ccccc2)c(=O)[nH]1 [compound 2]	cannot be calculated	–	dose-dependent manner	–
